Results as given in US5373000A, “7Beta-(thiadiazolyl)-2-iminoacetamido-3cephem compounds” (Eisai Co., Ltd., priority 1985, dated 1994).
Values after ≈ are worked out from the molar mass of the structure shown. Counter-ions that a name gives are not always drawn.

Key:
Staph. aureus 209-P = experiment: Antibacterial activities, MIC; assay type: cell-based; settings: Staphylococcus aureus, read-out: MIC
Pseud. aeruginosa EP-01 = experiment: Antibacterial activities, MIC; assay type: cell-based; settings: Pseudomonas aeruginosa, EP01, Pseud. aeruginosa EP-01; read-out: MIC
Kleb Pneumoniae EK-6 = experiment: Antibacterial activities, MIC; assay type: cell-based; settings: read-out: MIC
Escher. coli NIHJ = experiment: Antibacterial activities, MIC; assay type: cell-based; settings: Escherichia coli, read-out: MIC
in vivo = settings: mouse, iv
Ser. marcescens ES-75 = experiment: Antibacterial activities, MIC; assay type: cell-based; settings: Serratia marcescens, ES75, read-out: MIC
Morg. morganii EP-14 = experiment: Antibacterial activities, MIC; assay type: cell-based; settings: Morganella morganii, EP14, Morg. morganii EP-14; read-out: MIC

SMILES | MIC (Staph. aureus 209-P) [µg/mL] | MIC (Pseud. aeruginosa EP-01) [µg/mL] | MIC (Kleb Pneumoniae EK-6) [µg/mL] | MIC (Escher. coli NIHJ) [µg/mL] | LD50 (in vivo) [mg/kg] | MIC (Ser. marcescens ES-75) [µg/mL] | MIC (Morg. morganii EP-14) [µg/mL]
CO/N=C(\C(=O)N[C@@H]1C(=O)N2C(C(=O)[O-])=C(/C=C/C[N+]3(C)CCN(C)CC3)CS[C@H]12)c1nsc(N)n1 [Example 33, 7β-[2-(5-Amino-1,2,4-thiadiazol-3-yl)-(Z)-2-methoxyiminoacetamido]-3-[(E)-3-(1,4-dimethyl-1-piperazinio)-1-propen-1-yl]-3-cephem-4-carboxylate] | 0.2 (≈ 0.373 µM) | 1.56 (≈ 2.91 µM) | ≤ 0.025 | ≤ 0.025 | ≥ 3000 | 0.05 (≈ 0.0932 µM) | ≤ 0.025
CO/N=C(\C(=O)N[C@@H]1C(=O)N2C(C(=O)[O-])=C(/C=C/C[N+]34CCOC(C)(C3)OCC4)CS[C@H]12)c1nsc(N)n1 [Example 41, 7β-[2-(5-Amino-1,2,4-thiadiazol-3-yl)-(Z)-2-methoxyiminoacetamide]-3-[(E)-3-(5-aza-1-methyl-2,8-diozabicyclo[3,3,1]nonan-5-io)-1-propenyl]-3-cephem-4-carboxylate] | 0.4 (≈ 0.707 µM) | 1.56 (≈ 2.76 µM) | 0.05 (≈ 0.0884 µM) | 0.05 (≈ 0.0884 µM) | ≥ 3000 | 0.1 (≈ 0.177 µM) | 0.05 (≈ 0.0884 µM)
CO/N=C(\C(=O)N[C@@H]1C(=O)N2C(C(=O)[O-])=C(/C=C/C[N+](C)(C)CC(N)=O)CS[C@H]12)c1nsc(N)n1 [Example 1, 7β-[2-(5-Amino-1,2,4-thiadiazol-3-yl)-(Z)-2-methoxyiminoacetamido]-3-[(E)-3-(carbamoylmethyldimethylammonio)-1-propen-1-yl)-3-cephem-4-carboxylate] | 0.4 (≈ 0.763 µM) | 0.8 (≈ 1.53 µM) | 0.05 (≈ 0.0953 µM) | 0.05 (≈ 0.0953 µM) | ≥ 3000 | 0.1 (≈ 0.191 µM) | 0.05 (≈ 0.0953 µM)
CC[N+](C)(C/C=C/C1=C(C(=O)[O-])N2C(=O)[C@@H](NC(=O)/C(=N\OC)c3nsc(N)n3)[C@H]2SC1)CC(N)=O (stereo partly drawn) [Example 40] | 0.2 (≈ 0.371 µM) | 0.8 (≈ 1.49 µM) | ≤ 0.025 | ≤ 0.025 | ≥ 3000 | 0.05 (≈ 0.0928 µM) | ≤ 0.025
CO/N=C(\C(=O)N[C@@H]1C(=O)N2C(C(=O)[O-])=C(/C=C/C[N+](C)(C)[C@H](CO)C(N)=O)CS[C@H]12)c1nsc(N)n1 [Example 39, 7β-[2-(5-Amino-1,2,4-thiadiazol-3-yl)-(Z)-2-methoxyiminoacetamide]-3-[(E)-3-[(1R-carbamoyl-2-hydroxyethyl)dimethylammonio]-1-propenyl]-3-cephem-4-carboxylate] | 0.4 (≈ 0.721 µM) | 0.8 (≈ 1.44 µM) | ≤ 0.025 | 0.05 (≈ 0.0902 µM) | ≥ 3000 | 0.1 (≈ 0.18 µM) | 0.05 (≈ 0.0902 µM)
CO/N=C(\C(=O)N[C@@H]1C(=O)N2C(C(=O)[O-])=C(/C=C/C[N+](C)(C)Cc3nnco3)CS[C@H]12)c1nsc(N)n1 [Example 20, 7β-[2-(5-Amino-1,2,4-thiadiazol-3-yl)-(Z)-2-methoxyiminoacetamido]-3-[(E)-3-[(1,3,4-oxadiazol-2-yl)methyldimethylammonio]-1-propen-1-yl]-3-cephem-4-carboxylate] | 0.4 (≈ 0.728 µM) | 0.8 (≈ 1.46 µM) | ≤ 0.025 | ≤ 0.025 | ≥ 3000 | 0.1 (≈ 0.182 µM) | 0.05 (≈ 0.091 µM)
CO/N=C(\C(=O)N[C@@H]1C(=O)N2C(C(=O)[O-])=C(/C=C/C[N+]3(C)CCNCC3)CS[C@H]12)c1nsc(N)n1 [Example 5, 7β-[(2-(5-Amino-1,2,4-thiadiazol-3-yl)-(Z)-2-methoxyiminoacetamido]-3-[(E)-3-(1-methyl-1-piperadinio)-1-propen-1-yl]-3-cephem-4-carboxylate trifluoroacetate] | 0.2 | 0.8 | ≤ 0.025 | 0.05 | – | 0.1 | 0.1
CO/N=C(\C(=O)N[C@@H]1C(=O)N2C(C(=O)[O-])=C(/C=C/C[N+]3(C)CCS(=O)(=O)CC3)CS[C@H]12)c1nsc(N)n1 [Example 31, 7β-[2-(5-Amino-1,2,4-thiadiazol-3-yl)-(Z)-2-methoxyiminoacetamido]-3-[(E)-3-(1,1-dioxo-4-methyl-4-thiomorpholinio)-1-propen-1-yl]-3-cephem-4-carboxylate] | 0.4 (≈ 0.7 µM) | 0.8 (≈ 1.4 µM) | ≤ 0.025 | 0.05 (≈ 0.0875 µM) | – | 0.1 (≈ 0.175 µM) | 0.05 (≈ 0.0875 µM)
CO/N=C(\C(=O)N[C@@H]1C(=O)N2C(C(=O)[O-])=C(/C=C/C[N+]34CCC(C(N)=O)(CC3)CC4)CS[C@H]12)c1nsc(N)n1 [Example 4, 7β-[2-(5-Amino-1,2,4-thiadiazol-3-yl)-(Z)-2-methoxyiminoacetamido]-3-[(E)-3-(4-carbamoylquinuclidinio)-1-propen-1-yl]-3-cephem-4-carboxylate] | 0.4 (≈ 0.694 µM) | 1.56 (≈ 2.71 µM) | ≤ 0.025 | 0.05 (≈ 0.0867 µM) | – | 0.1 (≈ 0.173 µM) | 0.05 (≈ 0.0867 µM)
